{"source": "patent US10184933B2", "about": "“Compositions, systems and methods for gene expression noise drug screening and uses thereof” (priority 2013, dated 2019)", "key": {"[1]": {"test_system": "latent HIV-1", "settings": "Bocklandt et al., 2003; cited from earlier work"}, "[2]": {"test_system": "HIV-1 LTR promoter", "format": "cell-based", "settings": "FIG. 6D"}, "[3]": {"test_system": "HIV-1 LTR promoter", "settings": "shotgun imaging approach, Boehm et al., 2013; cited from earlier work"}, "[4]": {"settings": ">500 nM for more than 2 days; Williams et al., 2004; cited from earlier work"}, "[5]": {"test_system": "HIV-1 LTR promoter", "experiment": "Two-reporter system (LTR-d2GFP and LTR-mCherry) noise measurement", "format": "cell-based", "settings": "FIG. 6E", "description": "Without being bound by theory, a destabilized reporter is required to observe transcriptional noise with shorter time scales. GFP noise magnitude (quantified by the variance over the mean fluorescence squared, CV^2) and mean fluorescence were measured by high-throughput flow cytometry 24 hours post 10 uM drug exposure. To control for extrinsic variability in gene expression due to cell volume and state a conservative gating on the population forward versus side scatter was applied (See General Methods). A second LTR driving a long-lived mCherry reporter was integrated and screened alongside the destabilized reporter drug target to control for fluctuations in global resources and post-transcriptional noise sources (FIG. 6E).\nTo distinguish between compounds that primarily target transcription versus post-transcriptional processes and global resources (extrinsic noise) a second reporter of the LTR promoter driving a stable mCherry gene was included in the same targeted cell population used in the drug noise screen (FIG. 6E). The stable reporter averages out and is unaffected by fluctuations due to episodic transcription. Theory predicts that the destabilized d2GFP reporter can detect transcriptional bursting noise contributions (γp>>kon,koff, where γp is the fluorescent reporter degradation rate) while the two reporters together will move their noise magnitudes to changes in non-transcriptional noise sources. Filtering out non-transcriptional noise signatures of VM hits increases the probability for synergistic reactivation of latency. Noise from the two reporters was compared using the same processing as the LTR-d2GFP. The LTR-mCherry ΔCV^2 of the 85 selected VMs primarily land along the ΔCV^2 d2GFP axis. […]. Of these 25 compounds 15 were identified as modifiers of cell cycle, ATP, inflammation, post-translational modifications, and translation.\nIn addition to the GFP reporter in the LTR-d2GFP cell line, an LTR driving a long half-life mCherry reporter was present in the cell line. […] To remove compounds that altered CV^2 post transcriptionally, compounds that affected the CV^2 long-lived red reporter while conserving its mean mCherry level were removed. This method continues development of the original and decade-old 2-reporter system for intrinsic versus extrinsic noise measurements in bacteria (Elowitz et al., (2002) Science 297:1183-1186)."}, "[6]": {"test_system": "latent HIV-1 in JLat 8.6 cells", "format": "cell-based"}, "[7]": {"test_system": "latent HIV-1 in JLat 9.2 cells", "experiment": "HIV-1 latency reactivation in JLat 9.2 cells", "format": "cell-based", "procedure": "Jurkat cells were cultured in RPMI 1640 supplemented with 10% FBS and 1% penicillin-streptomycin. JLat 6.3, JLat 8.6, and JLat 9.2 cells are Jurkat T cell lines containing integrated but transcriptionally latent HIV-1 proviruses.\nDrug treatments were performed for 24 hours at 10 uM final concentration in 96-well plates. Compounds were automatically added into 200 μl cultures at the final concentration of 0.1% DMSO. […] Plates were kept in the incubator until measurement and each well was automatically mixed before samples were analyzed. 5×10^4 of all live cells that passed a specific forward scatter (FSC)—side scatter (SSC) gate were collected from each well for noise magnitude measurements from which a conservative gating was applied for about 3×10^3 cells of similar FSC vs SSC to reduce extrinsic noise contributions primarily due to differences in cell volume and state. Each 96-well plate included a column of untreated control cells, cells treated with TNFα (positive control) and one well of non-′ fluorescent naïve Jurkat cells. For HIV-1 reactivation experiments 1×10^4 live cells were collected."}, "[8]": {"test_system": "latent HIV-1 in JLat 15.4", "experiment": "HIV-1 latency reactivation in JLat 15.4 cells", "format": "cell-based"}, "[9]": {"test_system": "latent HIV-1 in primary T-cells", "format": "cell-based", "settings": "primary T-cell model", "description": "FIG. 18A schematically depicts a primary T-cell model of HIV-1 latency 48 h after reactivation with PMA or a subset of noise enhancers (% reactivation percentage is calculated relative to maximal reactivation potential). […] The horizontal line represents the mean calculated Bliss Independence Score (C. I. Bliss, Ann. Appl. Biol. 26:585-615 (1939)), a measure for strict additivity for all of the compounds. FIG. 18B schematically depicts stochastic simulations of noise suppression, which reduces noise without altering the mean expression level but limits reactivation induced by an activator. […] Details are described, e.g., in Example 10."}, "[10]": {"settings": "known transcriptional modulators applied to the isoclone target"}, "[11]": {"settings": "known transcriptional activators"}}, "note": "“Also recorded” adds a separate entry of the source. Structures can show the parent of a compound that is named as a salt. Where two headings read alike, the source gives them in different places."}
{"smiles": "CC1=C[C@H]2[C@@]3(O)[C@H](C)C[C@]4(OC(=O)Cc5ccccc5)C([C@@H]3C=C(CO)C[C@]2(O)C1=O)C4(C)C", "note": "(stereo partly shown) [DPP, 12-deoxyphorbol 13-phenylacetate]", "values": [{"measurement": "potency relative to prostratin", "setting": "[1]", "value": "20-40 fold"}]}
{"smiles": "Cc1sc2c(c1C)C(c1ccc(Cl)cc1)=N[C@@H](CC(=O)OC(C)(C)C)c1nnc(C)n1-2", "note": "[JQ1, t-Butyl-2-((6S)-4-(4-chlorophenyl)-2,3,9-trimethyl-6H-thieno[3,2-f][1,2,4]triazolo[4,3-a][1,4]diazepin-6-yl)acetate]", "values": [{"measurement": "variability in gene expression (noise magnitude)", "setting": "[2]; [10]", "value": "increase variability in gene expression; also recorded: variability enhancers"}, {"measurement": "noise magnitude across integration sites", "setting": "[3]", "value": "global increase in noise magnitude"}]}
{"smiles": "CC(=O)O[C@@]12C[C@@H](C)[C@@]3(O)[C@@H](C=C(CO)C[C@]4(O)C(=O)C(C)=C[C@@H]34)[C@@H]1C2(C)C", "note": "[Prostratin, 12-deoxyphorbol 13-acetate]", "values": [{"measurement": "burst frequency", "setting": "[2]; activator drugs", "value": "increase burst frequency"}, {"measurement": "mean expression level", "setting": "[2]; [10]", "value": "increase mean expression level"}, {"measurement": "variability in gene expression (noise magnitude)", "setting": "[2]; [10]", "value": "decrease noise magnitude"}, {"measurement": "variability in gene expression (noise magnitude)", "setting": "[2]; known transcriptional modulators applied to the isoclone target, listed as prostratin", "value": "decrease variability in gene expression"}, {"measurement": "toxicity", "setting": "[4]", "value": "substantial growth arrest and cell death"}, {"measurement": "d2GFP noise", "setting": "[5]; [11]", "value": "decrease both mCherry and d2GFP noise"}, {"measurement": "mCherry noise", "setting": "[5]; [11]", "value": "decrease both mCherry and d2GFP noise"}, {"measurement": "transcriptional burst frequency (decreasing noise in mCherry)", "setting": "[5]; transcriptional modifiers", "value": "increase transcriptional burst frequency"}, {"measurement": "reactivation by activator alone", "setting": "[6]; Prostratin alone, 48 hr", "value": 6, "unit": "%"}]}
{"smiles": "COC(=O)C1=C(C)NC(C)=C(C(=O)OCCN2CCN(C(c3ccccc3)c3ccccc3)CC2)C1c1cccc([N+](=O)[O-])c1", "note": "(stereo not shown) [VS1, manidipine hydrochloride]", "values": [{"measurement": "decrease of TNFα-mediated reactivation", "setting": "[7]", "value": "about 40%"}, {"measurement": "decrease of TNF-induced reactivation", "setting": "[8]", "value": "~40", "unit": "%"}, {"measurement": "decrease of Prostratin-induced reactivation", "setting": "[9]", "value": "~50", "unit": "%"}, {"measurement": "decrease of TNF-induced reactivation", "setting": "[6]; JLat 8.6", "value": "~40", "unit": "%"}]}
